Here are results for six molecules from US9024055B2, “Acetaminophen conjugates, compositions and methods of use thereof” (Acorda Therapeutics, Inc., priority 2011, dated 2015).

The subject of series [1] is alkaline phosphatase. The following applies: with alkaline phosphatase; cited from earlier work.
For series [2] the following is noted: cited from earlier work.
For series [3] the following is noted: Goodman and Gillman's 10th ed; cited from earlier work.
For series [4] the following is noted: cited from earlier work. This is another data set of the same source.
Series [5] is described as follows: Solubility in phosphate-buffered saline (pH 7.2) at room temperature (Example 18). Particulars: pH 7.2, aqueous buffer.
Series [6] is described as follows: Solubility via modified protocol with water bath equilibration (Example 17B), HPLC. In kind it is physicochemical. As for the experimental part:
10-60 mg of Test Article A was weighed into a 1 mL micro centrifuge tube. 100 μL of solvent was added. Samples were mixed using a vortex mixer, and then sonicated for 15 minutes at ambient temperature. In the event of complete dissolution, more solute was added. The resultant suspensions were equilibrated in a water bath for 20 minutes and were centrifuged for 1 minute to yield an off-white saturated solution. The samples were then equilibrated a further 20 minutes in the water bath. 5-10 μL aliquots of the supernatant were diluted into 25 mL of mobile phase using volumetric flasks, prior to analysis by HPLC.
(§1) A HPLC method was developed to quantify Test Article A concentration via external standard analysis, and also monitor and quantify the hydrolysis product APAP. Linearity was determined over the range 20 to 120 μg/mL, and reproducibility was determined at 100 μg/mL.

The nature of series [7]: Rat liver microsome-mediated metabolism (appearance of acetaminophen). The class given is in vitro ADME. The following applies: for Stability in buffer: phosphate buffer at 37° C. (rat microsome study). As for the experimental part: Loss of APAP-d4 was also monitored.
Lot 62548 consisting of ˜334 male rat livers and lot 59232 consisting of 10 female rat livers were pooled at a 1:1 ratio just before use. […] Compounds were weighed immediately prior to use. […] Purity was taken into account for the stock preparation.
Incubation wells were placed in a wet ice-bath.

Series [8] can be described thus: Test article pharmacokinetics in rats after a single oral or intravenous dose; plasma acetaminophen by LC-MS/MS. In kind it is in vivo, Sprague-Dawley rats. The following applies: for Acetaminophen exposure compared with administration of acetaminophen: equivalent acetaminophen doses, oral and intravenous. As for the experimental part: Forty-eight (48) male and female Sprague-Dawley rats were assigned to eight dose groups consisting of three animals per test article per dose route per gender. There were four test articles including acetaminophen, obtained from Sigma-Aldrich, and three acetaminophen conjugates as set forth below.
The animals received a single dose (oral or intravenous) of the test articles via oral gavage or slow intravenous bolus. […] Cage-side observations were performed daily; body weights were recorded prior to each dosing day. Blood samples for pharmacokinetic (PK) analyses were collected at 5 minutes to 8 hr post-dose and acetaminophen plasma concentrations were measured via a LC-MS/MS method.
Non-compartmental pharmacokinetic analysis was conducted for mean plasma acetaminophen concentrations for each test article. Measures of acetaminophen exposure (e.g., AUClast) were typically greater in female animals than male animals for all test articles and for both the oral and intravenous routes of administration.

The nature of series [9]: Solubility testing, initial protocol (Example 17A), HPLC. The class given is physicochemical. The following applies: thermodynamic from solid, 18 ° C. As for the experimental part: 10-60 mg of Test Article A was weighed into a 1 mL micro centrifuge tube. 100 μL of solvent was added. Samples were mixed using a vortex mixer, and then sonicated for 15 minutes at ambient temperature. In the event of complete dissolution, more solute was added. The resultant suspensions were centrifuged to yield an off-white saturated solution. A small aliquot of the supernatant was diluted prior to analysis by HPLC.
as §1

A short description of series [10]: Stability in PBS at 37° C. (control matrix). The class given is physicochemical. The following applies: out to four hours. As for the experimental part: (§2) Loss of deuterated acetaminophen (APAP-d4) was also monitored in order to account for compound losses due to the metabolism of acetaminophen. Stability of the test samples in PBS at 37° C. was also determined.
(§3) Five lots of human whole blood (lithium heparin) were purchased from Biochemed and stored refrigerated at +5° C.±3° C. until use. Five lots of SD Rat whole blood (lithium heparin) were purchased from Biochemed and stored refrigerated at +5° C.±3° C. until use. Phosphate-buffered saline was used as a control matrix; it was prepared in-house and stored refrigerated at +5° C.±3° C. until use. Test Articles were weighed immediately prior use.
(§4) Whole blood was removed from storage and allowed to reach room temperature. It was pooled by species at this time. Once the pool reached room temperature, individual 1,980 μL aliquots of the whole blood pool were added to the appropriate tubes on test. Individual 1,980 μL aliquots of blank phosphate buffered saline (PBS) were added to the appropriate tubes on test. All tubes were pre-incubated at 37° C. in a water bath for 5 minutes.
The appropriate intermediate solution was added to each tube on test such that the final concentration of the test article in blood was 6.62 μM. The compound was assayed in triplicate at this concentration. Nominal O-minute samples were aliquoted into a 96-well plate as soon as spiking solution was added. Just prior to a 150 μL sample transfer, 450 μL of acetonitrile:methanol (1:1) was placed in the individual receiving wells in order to stop conversion reactions. The plate containing “stopped” samples was held, covered, in a wet-ice bath until all remaining timepoints were aliquoted. All remaining spiked samples were incubated at 37° C. in a water bath throughout the sampling period. […] Just prior to each transfer, 450 μL, of acetonitrile:methanol (1:1) was placed in the receiving wells for those aliquots in order to stop conversion reactions.

Series [11] in a line: Human liver microsome-mediated metabolism (appearance of acetaminophen). Particulars: for Stability in buffer: phosphate buffer at 37° C. (human microsome study). As for the experimental part: The appearance of acetaminophen (APAP) when Test Articles A, B or C are incubated in human liver microsomes at 37° C. was determined. Loss of APAP-d4 was also monitored.
One lot consisted of ˜150 human mixed gender liver microsomes was purchased from BD Biosciences and stored frozen at −80° C. until use. Compounds were weighed immediately prior use. Test Article A, Test Article B, and Test Article C were weighed on a microbalance and dissolved in water to generate individual stock solutions, each at a concentration of 3.31 mM. Purity was taken into account for each stock solution prepared. APAP-d4 was weighed on a microbalance and dissolved in water to generate a stock solution at a 3.31 mM concentration. Purity was taken into account for the stock preparation.
One part Test Articles A, B or C and one part APAP-d4 was added to three parts water to arrive at an intermediate solution consisting of 662 μM for each compound.
The intermediate solutions prepared above were added to phosphate buffer to arrive at solutions consisting of 8.827 μM of each compound; these were called Substrate solutions. Incubation wells were placed in a wet ice-bath. 750 μL of Substrate solution was added to the appropriate wells. […] 50 μL of Microsomal suspension (20 mg/mL) was added to the appropriate wells. […] Samples were pre-incubated by shaking at 37° C. for 5 minutes. Just prior to starting the reactions in the next step 80 μL aliquots were removed and “killed” with 200 μL of Stop solution; these were the 0 min samples.
Reactions for the remaining samples were started by adding 180 μL Cofactor Solution (5×) to the appropriate wells. […] A 20 μL aliquot of Cofactor Solution (5×) was added to the stopped 0 min samples. […] At 2.5, 5, 10, 30, 60, 120, and 240 minutes, 100 μL of the specified incubation sample was removed and “killed” with 200 μL of Stop Solution. Once all required samples were collected, the plate was centrifuged at 3000 rpm for 10 minutes to pellet the precipitated proteins, and the resultant supernatants were transferred to a fresh 96-well plate for extraction and analysis.
Samples were analyzed for acetaminophen and acetaminophen-d4 concentrations, using a method that employs HPLC and MS/MS detection.

Series [12] is described as follows: Hydrolysis and metabolism in rat whole blood at 37° C. (appearance of acetaminophen). In kind it is in vitro ADME, SD Rat. The following applies: rat whole blood vs PBS. As for the experimental part: as §2, §3
(§5) Purity was taken into account for the stock preparation.
as §4
The appropriate intermediate solution was added to each tube on test such that the final concentration of the test article in blood was 6.62 μM. The compound was assayed in triplicate at this concentration. […]

The nature of series [13]: Hydrolysis and metabolism in human whole blood at 37° C. (appearance of acetaminophen). The class given is in vitro ADME. The following applies: human whole blood vs PBS. As for the experimental part:
as §2, §3, §5
Whole blood was removed from storage and allowed to reach room temperature. It was pooled by species at this time. Once the pool reached room temperature, individual 1980 μL aliquots of the whole blood pool were added to the appropriate tubes on test. All tubes were pre-incubated at 37° C. in a water bath for 5 minutes.
The appropriate intermediate solution was added to each tube on test such that the final concentration of the test article in blood was 6.62 μM. The compound was assayed in triplicate at this concentration. Nominal O-minute samples were aliquoted into a 96-well plate as soon as spiking solution was added. […]

Setting [14] is: Anesthesia and Analgesia 101, 90-96, 2005.
The mark [15] stands for this setting: British Journal of Anaesthesia 94 (5): 642-648, 2005.
The mark [16] stands for this setting: with and without cofactor, compared with buffer, 37° C., up to 240 minutes.

Molecules are shown by their SMILES. Converted amounts (≈) assume the structure as drawn. Like-named read-outs stand apart in the source and are kept apart here.

On to `CC(=O)Nc1ccc(OP(=O)(O)O)cc1` [4-acetamidophenyl dihydrogen phosphate], for which, in series [1], the “Time required in vitro to yield acetaminophen from the derivative” value is “about 15 hours”. For the same molecule, the Water solubility in [2] is listed as 50 g per 100 mL.
For `CC(=O)Nc1ccc(O)cc1` [Acetaminophen, N-(4-hydroxyphenyl)acetamide], the Half-life entry in series [3] was “about 2 hours”. Besides, the Local tolerance profile in [4] (setting [14]) is on record as 0%; in series [4] (setting [15]), 52%. Also, the Water solubility entry in series [2] is “about 1.3 g per 100 mL”. Moreover, the solubility in [5] (phosphate-buffered saline) is 13.1 mg/mL (≈ 86.7 mM).
In the case of `CCN(CC)CC(=O)Oc1ccc(NC(C)=O)cc1` [Propacetamol, 4-acetamidophenyl 2-(diethylamino)acetate], the Local tolerance profile is recorded as 49% in [4] (setting [14]) and 90% in series [4] (setting [15]).
For the molecule `CC(=O)Nc1ccc(OC(=O)SCCS(=O)(=O)[O-])cc1.[Na+]` [Test Article A, Sodium 2-((4-acetamidophenoxy)carbonylthio)ethanesulfonate], the solubility at 40 min was 103 mg/mL in [6] (PEG-400, 19 °C, organic solvent or mixture, thermodynamic from solid); 306 mg/mL in series [6] (PEG-400/water (50% water), 19 °C, aqueous with cosolvent or surfactant or cyclodextrin, thermodynamic from solid); 226 mg/mL in [6] (pH 5 buffer, 19 °C, pH 5, aqueous buffer, thermodynamic from solid); 198 mg/mL in series [6] (pH 6.5 buffer, 19 °C, pH 6.5, aqueous buffer, thermodynamic from solid); 406 mg/mL in [6] (pH 6.5 buffer, 35 °C, pH 6.5, aqueous buffer, thermodynamic from solid); 198 mg/mL in series [6] (pH 8 buffer, 19 °C, pH 8, aqueous buffer, thermodynamic from solid). The solubility at 40 min came out at 69 mg/mL in series [6] (propylene glycol, 19 °C, organic solvent or mixture, thermodynamic from solid); 185 mg/mL in series [6] (propylene glycol/water (50% water), 19 °C, aqueous with cosolvent or surfactant or cyclodextrin, thermodynamic from solid); 230 mg/mL in [6] (water, 19 °C, thermodynamic from solid, Water Repeat, modified protocol). Also, the solubility in [6] (pH 6.5 Buffer, 19 ° C.) turned out to be 210 mg/mL; in [6] (water, 0 °C, water, thermodynamic from solid, Water (in Fridge), 0 to 4 ° C., read-out: Solubility), 78 mg/mL. Further, the Stability in buffer result in series [7] and in series [11] was “stable” in each case. The “Conversion to acetaminophen in rat liver microsomes” value in series [7] (setting [16]) is on record as “at a level much greater than incubations with buffer”. Besides, in series [8], the “Acetaminophen exposure compared with administration of acetaminophen” value is reported as “as great as, or greater than”. In addition, the “Time to maximum acetaminophen plasma concentration compared with Test Articles C and B” value in series [8] (oral administration) is “longer time to maximum acetaminophen plasma concentrations”. Also, the solubility at 15 min in series [9] (aqueous buffer, PBS) worked out at 246 mg/mL; in series [9] (aqueous with cosolvent or surfactant or cyclodextrin, 50% Water, Ethanol) it was 199 mg/mL; in series [9] (organic solvent or mixture, Ethanol), 1 mg/mL; in series [9] (Water, initial protocol), 280 mg/mL. Also, the “Stability in PBS” value in series [10] is listed as “rather stable”. For the same molecule, the “Conversion to acetaminophen in human liver microsomes” value in series [11] (setting [16]) is “at a level greater than incubations with buffer”.
`CC(=O)Nc1ccc(OC(=O)NCCS(=O)[O-])cc1.[Na+]` [Test Article B, Sodium 2-((4-acetamidophenoxy)carbonylamino)ethanesulfinate]: the Stability in buffer result in [7] and in [11] was “not stable” in each case. Also, in series [8], the “Acetaminophen exposure compared with administration of acetaminophen” value is “substantially lower”. Also, the “Conversion to APAP in blood incubations versus buffer incubations” value in series [12] and in series [13] was “nearly equivalent” each time. The molecule further displayed a solubility in [5] of 424 mg/mL. The “Stability in PBS” value in series [10] is “not stable”.
Turning to `CC(=O)Nc1ccc(OC(=O)NCCS(=O)(=O)[O-])cc1.[Na+]` [Test Article C, Sodium 2-((4-acetamidophenoxy)carbonylamino)ethanesulfonate, reference compound], the Stability in buffer entry in [7] and in series [11] was “not stable” in each case. In series [8], the “Acetaminophen exposure compared with administration of acetaminophen” value is “substantially lower”. In addition, the “Conversion to APAP in blood incubations versus buffer incubations” value in [12] and in series [13] was “nearly equivalent” throughout. For the same molecule, the solubility in series [5] was 492 mg/mL. The “Stability in PBS” value in series [10] was “not stable”.
